In PubChem BioAssay (NCI):
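Growth conditions: 96-well plates. Treatment: test compound, 48 hours, 5 concentrations. Analysis: linear interpolation between bracketing concentrations; unreached endpoints set to highest concentration. GI50 marks 50% less growth. At the TGI there is no net growth.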

Legend:
Assay in all cases: growth of human tumour cells (NCI), 48 h
[1] = tested on: SW-620 colon
[2] = tested on: SF-295 CNS
[3] = tested on: CAKI-1 renal
[4] = tested on: M14 melanoma
[5] = tested on: UACC-62 melanoma
[6] = tested on: HCT-116 colon
[7] = tested on: LOX IMVI melanoma
[8] = tested on: K-562 leukemia
[9] = tested on: ACHN renal
[10] = tested on: SR leukemia

Row | Compound | GI50 [1] | TGI [1] | GI50 [2] | TGI [2] | GI50 [3] | TGI [3] | GI50 [4] | TGI [4] | GI50 [5] | TGI [5] | GI50 [6] | TGI [6] | GI50 [7] | TGI [7] | GI50 [8] | TGI [8] | GI50 [9] | TGI [9] | GI50 [10] | TGI [10]
1 | CN(CCOc1ccc(C#N)cc1)CCOc1ccc(C#N)cc1 | 57.5 µM | > 100 µM | 17.3 µM | > 100 µM | 74.6 µM | > 100 µM | 78.9 µM | > 100 µM | > 100 µM | > 100 µM | 60.5 µM | > 100 µM | > 100 µM | > 100 µM | 16.7 µM | > 100 µM | 41.5 µM | > 100 µM | 5.21 µM | 61 µM
2 | CN(C)c1ccc2cc(-c3ccccc3F)c(N)nc2c1 | 0.636 µM | 17.2 µM | 1.04 µM | 12.4 µM | 3.17 µM | 21 µM | 0.448 µM | 4.5 µM | 0.89 µM | 12 µM | 0.454 µM | 11 µM | 2.69 µM | 15.1 µM | 0.393 µM | 16.6 µM | 3.8 µM | 17.3 µM | 0.491 µM | 4.99 µM
3 | CCN(Cc1ccccc1OC)c1ccc(CO)c(Cl)c1 | 2.33 µM | 17.5 µM | 2.71 µM | 15.3 µM | 5.62 µM | 23.9 µM | 12.4 µM | 25.5 µM | 0.223 µM | 1.79 µM | 0.215 µM | 8.77 µM | 15.1 µM | 29.6 µM | 2.16 µM | 12.1 µM | 14.1 µM | 27.4 µM | 8.53 µM | 40.9 µM
4 | Fc1cccc(COc2ccc(Nc3ncnc4cc(-c5ccc[nH]5)sc34)cc2Cl)c1 | 8.56 µM | > 25 µM | 0.548 µM | > 19.9 µM | 0.681 µM | 6.89 µM | 8.32 µM | > 23.4 µM | 5.77 µM | > 22.8 µM | 7.46 µM | > 25 µM | 8.04 µM | > 22.4 µM | 10.7 µM | > 25 µM | 2.68 µM | > 16.8 µM | 13.6 µM | > 25 µM
5 | CC12CCC(=O)C=C1CCC1C2C(O)CC2(C)C(c3csc(N)n3)CCC12 (configuration not stated) |  | > 100 µM |  | > 100 µM |  | > 100 µM |  | > 100 µM |  | > 100 µM |  | > 100 µM |  | > 100 µM |  | > 100 µM |  | > 100 µM |  | > 100 µM
6 | O=C1/C(=C/c2ccc(O)cc2)COc2ccc(-c3ccccc3)cc21 | 2.8 µM | 8.06 µM | 6.8 µM | 24.7 µM | 6.9 µM | 20.2 µM | 12.2 µM | 39.1 µM | 12.7 µM | 25.6 µM | 3.38 µM | 14.4 µM | 3.54 µM | 13.3 µM | 2.57 µM | > 39.3 µM | 12.3 µM | 25.1 µM | 1.63 µM | > 28.4 µM
7 | CC/C=C\C/C=C\C/C=C\CCCCCCCC(=O)OCC |  | > 100 µM |  | > 100 µM |  | > 100 µM |  | > 100 µM |  | > 100 µM |  | > 100 µM |  | > 100 µM |  | > 100 µM |  | > 100 µM |  | > 100 µM
8 | CC1C(=O)C(C)C(c2ccccc2)N(N=O)C1c1ccccc1 (configuration not stated) | > 1000 µM | > 1000 µM | 181 µM | 498 µM |  | > 700 µM |  | > 581 µM |  | > 655 µM |  | 354 µM |  | > 783 µM |  | > 1000 µM |  | 341 µM |  | > 1000 µM
9 | CCCCn1cnc2c(SC)ncnc21 |  | > 100 µM |  | > 100 µM |  | > 100 µM |  | > 100 µM |  | > 100 µM |  | > 100 µM |  | > 100 µM |  | > 100 µM |  | > 100 µM |  | 94.4 µM
10 | CCOC(=O)NN1C(=O)C(=P(c2ccccc2)(c2ccccc2)c2ccccc2)C(C(=O)OCC)=C1C |  | > 100 µM |  | > 100 µM |  | > 100 µM |  | > 100 µM |  | > 100 µM |  | > 100 µM |  | > 100 µM |  | > 100 µM |  | > 100 µM |  | > 100 µM
11 | O=C1C(Cl)=C(Nc2cccc(O)c2)C(=O)N1c1cc(Cl)c(Cl)cc1Cl | 15.2 µM | 28.9 µM | 20.6 µM | 53.2 µM | 19.2 µM | 48.1 µM | 20.8 µM | 40.9 µM | 17.2 µM | 32.5 µM | 15.8 µM | 30.2 µM | 13 µM | 28 µM | 17.4 µM | 40.3 µM | 14.4 µM | 27.5 µM | 10.3 µM | 59.7 µM
12 | CC[C@H](CC#N)OC(=O)N[C@@H](C)c1cccc(NC(=O)Nc2ccc(-c3cnco3)c(OC)c2)c1 | 0.0229 µM | 40.6 µM | 0.0532 µM | 13 µM | 0.0696 µM | 0.396 µM | 0.0753 µM | 30.5 µM | 0.141 µM | 24.5 µM | 0.026 µM | > 45.8 µM | 0.0242 µM | 24.8 µM | 0.0263 µM | > 52.6 µM | 0.0872 µM | 45.1 µM | 0.0289 µM | 4.3 µM
13 | COc1cc[nH]c1/C=C1\C(=O)Nc2ccc(F)c(I)c21 | > 25 µM | > 25 µM | > 25 µM | > 25 µM | 0.557 µM | > 25 µM | > 25 µM | > 25 µM | > 25 µM | > 25 µM | > 25 µM | > 25 µM | > 25 µM | > 25 µM | > 25 µM | > 25 µM | > 25 µM | > 25 µM | > 25 µM | > 25 µM
14 | Cc1cccc(C(C)C)c1NC(=O)C(=O)CC(=O)c1c(C)n([O-])c2ccccc2[n+]1=O |  | > 100 µM |  | > 100 µM |  | > 100 µM |  | 95.3 µM |  | 42.4 µM |  | > 100 µM |  | > 100 µM |  | > 100 µM |  | > 100 µM |  | 78.5 µM
15 | O=C(CN1CCN(c2ccccc2)CC1)N1CCc2c([nH]c3ccccc23)C1c1cccnc1 (configuration not stated) |  | > 100 µM |  | 84.8 µM |  | > 72.6 µM |  | > 100 µM |  | > 100 µM |  | 21.3 µM |  | > 100 µM |  | > 100 µM |  | > 100 µM |  | > 100 µM
